Target: USP30 (Homo sapiens (Human), UniProt Q70CQ3)
Test: USP30 Biochemical IC50 Assay
Conditions: fluorescence polarisation, TAMRA labelled peptide linked to ubiquitin; 30 min pre-incubation, read after 2 h; read-out: IC50 range
Experimental: Reactions were performed in duplicate in black 384 well plates (small volume, Greiner 784076) in a final reaction volume of 21 μl. Either 1 μl of 50% DMSO or diluted compound was added to the plate. […] Enzyme and compound were incubated for 30 min at room temp. Reactions were initiated by the addition of 50 nM of TAMRA labelled peptide linked to ubiquitin via an iso-peptide bond as fluorescence polarisation substrate. Reactions were read immediately after addition of substrate and following a 2 h incubation at room temperature. Readings were performed on a Pherastar Plus (BMG Labtech). λ Excitation 540 nm; λ Emission 590 nm.

USP30, sequence (Q70CQ3 57-517): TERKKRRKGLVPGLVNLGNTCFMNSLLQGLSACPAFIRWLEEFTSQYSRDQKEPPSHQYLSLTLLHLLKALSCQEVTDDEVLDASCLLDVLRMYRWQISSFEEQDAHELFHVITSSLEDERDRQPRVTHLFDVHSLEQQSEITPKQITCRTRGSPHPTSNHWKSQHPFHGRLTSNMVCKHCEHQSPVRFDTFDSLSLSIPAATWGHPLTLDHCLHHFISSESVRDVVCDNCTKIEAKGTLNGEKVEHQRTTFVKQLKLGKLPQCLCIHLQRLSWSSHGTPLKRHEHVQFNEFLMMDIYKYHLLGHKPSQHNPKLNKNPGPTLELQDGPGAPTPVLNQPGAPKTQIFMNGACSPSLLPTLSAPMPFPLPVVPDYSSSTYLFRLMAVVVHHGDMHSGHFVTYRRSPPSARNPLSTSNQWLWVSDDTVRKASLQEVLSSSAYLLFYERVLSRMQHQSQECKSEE

| Compound | IC50 [µM] |
| --- | --- |
| Cc1nc2nc(C3CCN(C#N)C3)[nH]c2cc1-c1ccccc1 (centres unmarked) [Example 99, 3-(5-Methyl-6-phenyl-3H-imidazo[4,5-b]pyridin-2-yl)pyrrolidine-1-carbonitrile] | 0.1 to 1 |
| C[C@@H]1CN(C#N)C[C@H]1c1n[nH]c(-c2cccc(-c3ccccc3)c2)n1 (relative stereo) [Example 114, Trans-3-(3-([1,1′-biphenyl]-3-yl)-1H-1,2,4-triazol-5-yl)-4-methylpyrrolidine-1-carbonitrile] | < 0.1 |
| C[C@@H]1CN(C#N)C[C@H]1c1cc(-c2cccc(-c3ccccc3)c2)n(C)n1 [Example 25] | 0.1 to 1 |
| CNC(=O)c1cccc(-c2cnc3[nH]c(C4CCN(C#N)C4)nc3c2)c1 (centres unmarked) [Example 89, 3-(2-(1-Cyanopyrrolidin-3-yl)-3H-imidazo[4,5-b]pyridin-6-yl)-N-methylbenzamide] | 1 to 10 |
| N#CN1CCC(c2cc(-c3cccc(-c4ccccc4)c3)no2)C1 (single isomer, unassigned) [Example 119, 3-(3-([1,1′-Biphenyl]-3-yl)isoxazol-5-yl)pyrrolidine-1-carbonitrile] | < 0.1 |
| N#CN1CCC(c2cc(-c3cccc(-c4ccccc4)n3)[nH]n2)C1 (centres unmarked) [Example 37, 3-(5-(6-Phenylpyridin-2-yl)-1H-pyrazol-3-yl)pyrrolidine-1-carbonitrile] | 0.1 to 1 |
| CC[C@@H]1CN(C#N)C[C@H]1c1cc(-c2cccc(-c3ccccc3)c2)n[nH]1 (single isomer, unassigned) [Example 44, Trans-3-(3-([1,1′-biphenyl]-3-yl)-1H-pyrazol-5-yl)-4-ethylpyrrolidine-1-carbonitrile] | 1 to 10 |
| C[C@H]1CN(C#N)C[C@@H]1c1nc2cc(-c3ccccc3)ccc2[nH]1 (single isomer, unassigned) [Example 104, Trans-3-methyl-4-(5-phenyl-1H-benzo[d]imidazol-2-yl)pyrrolidine-1-carbonitrile] | 0.1 to 1 |
| N#CN1CCC(c2cc(-c3cccc(-c4ccccc4)n3)[nH]n2)C1 (single isomer, unassigned) [Example 41, 3-(5-(6-Phenylpyridin-2-yl)-1H-pyrazol-3-yl)pyrrolidine-1-carbonitrile] | 0.1 to 1 |
| N#CN1CCC(c2cc(-c3cncc(-c4ccccc4)c3)[nH]n2)C1 (centres unmarked) [Example 36, 3-(5-(5-Phenylpyridin-3-yl)-1H-pyrazol-3-yl)pyrrolidine-1-carbonitrile] | 0.1 to 1 |
| N#CN1CCC(c2cnc3cc(-c4ccccc4)ccn23)C1 (centres unmarked) [Example 124, 3-(7-Phenylimidazo[1,2-a]pyridin-3-yl)pyrrolidine-1-carbonitrile] | 0.1 to 1 |
| N#CN1CCC(c2[nH]nc(-c3cccc(-c4ccccc4)c3)c2F)C1 (single isomer, unassigned) [Example 17, 3-(3-([1,1′-Biphenyl]-3-yl)-4-fluoro-1H-pyrazol-5-yl)pyrrolidine-1-carbonitrile] | < 0.1 |
| N#CN1CCCC1c1noc(-c2cccc(-c3ccccc3)c2)n1 (centres unmarked) [Example 68, 2-(5-([1,1′-Biphenyl]-3-yl)-1,2,4-oxadiazol-3-yl)pyrrolidine-1-carbonitrile] | 0.1 to 1 |
| N#CN1CC[C@@H](c2noc(-c3ccnc(N4CCc5ccccc5C4)c3)n2)C1 [Example 65, (R)-3-(5-(2-(3,4-Dihydroisoquinolin-2(1H)-yl)pyridin-4-yl)-1,2,4-oxadiazol-3-yl)pyrrolidine-1-carbonitrile] | 1 to 10 |
| N#CN1CCC(c2cc(-c3cccc(-c4ccncc4)c3)n[nH]2)C1 (centres unmarked) [Example 28, 3-(3-(3-(Pyridin-4-yl)phenyl)-1H-pyrazol-5-yl)pyrrolidine-1-carbonitrile] | 0.1 to 1 |
| N#CN1CCC(c2cc(-c3cccc(-c4cnoc4)c3)[nH]n2)C1 (centres unmarked) [Example 33, 3-(5-(3-(Isoxazol-4-yl)phenyl)-1H-pyrazol-3-yl)pyrrolidine-1-carbonitrile] | 0.1 to 1 |
| N#CN1CCC(c2nc3ccc(-c4ccc(C(N)=O)cc4)cc3[nH]2)C1 (centres unmarked) [Example 74, 4-(2-(1-Cyanopyrrolidin-3-yl)-1H-benzo[d]imidazol-6-yl)benzamide] | 0.1 to 1 |
| N#CN1CC[C@@H](c2noc(-c3cc(-c4ccccc4)ccn3)n2)C1 [Example 63, (R)-3-(5-(4-Phenylpyridin-2-yl)-1,2,4-oxadiazol-3-yl)pyrrolidine-1-carbonitrile] | 0.1 to 1 |
| N#CN1CCC(c2cc(-c3cccc(-c4ccccc4)n3)[nH]n2)C1 (single isomer, unassigned) [Example 42, 3-(5-(6-Phenylpyridin-2-yl)-1H-pyrazol-3-yl)pyrrolidine-1-carbonitrile] | 0.1 to 1 |
| N#CN1CCC(c2nnc(-c3ccc(-c4ccccc4)cc3)[nH]2)C1 (centres unmarked) [Example 112, 3-(3-([1,1′-Biphenyl]-4-yl)-1H-1,2,4-triazol-5-yl)pyrrolidine-1-carbonitrile] | 0.1 to 1 |
| N#CN1CCC(c2n[nH]c(-c3cc(-c4ccccc4)ccn3)n2)C1 (centres unmarked) [Example 109, 3-(5-(4-Phenylpyridin-2-yl)-4H-1,2,4-triazol-3-yl)pyrrolidine-1-carbonitrile] | 0.1 to 1 |
| COc1cc(-c2nc(C3CCN(C#N)C3)no2)nc2ccccc12 (centres unmarked) [Example 58, 3-(5-(4-Methoxyquinolin-2-yl)-1,2,4-oxadiazol-3-yl)pyrrolidine-1-carbonitrile] | 1 to 10 |
| N#CN1CCC(c2nnc(-c3cccc(-c4ccccc4)n3)[nH]2)C1 (centres unmarked) [Example 110, 3-(5-(6-Phenylpyridin-2-yl)-4H-1,2,4-triazol-3-yl)pyrrolidine-1-carbonitrile] | 0.1 to 1 |
| N#Cc1cccc(-c2cc(-c3nc(C4CCCN4C#N)no3)ccn2)n1 (centres unmarked) [Example 180, 4′-(3-(1-Cyanopyrrolidin-2-yl)-1,2,4-oxadiazol-5-yl)-[2,2′-bipyridine]-6-carbonitrile] | 0.1 to 1 |
| CNC(=O)c1ccc(-c2ccc3nc(C4CCN(C#N)C4)[nH]c3c2)cc1 (centres unmarked) [Example 75, 4-(2-(1-Cyanopyrrolidin-3-yl)-1H-benzo[d]imidazol-6-yl)-N-methylbenzamide] | 0.1 to 1 |
| N#CN1CCCC1c1noc(-c2ccnc(-c3ccccc3)c2)n1 (centres unmarked) [Example 167] | 0.1 to 1 |

Next, values leading:

| IC50 [µM] | Compound |
| --- | --- |
| < 0.1 | N#Cc1cccc(-c2nccc(-c3nc([C@@H]4CCCN4C#N)no3)n2)c1 [Example 186, (S)-2-(5-(2-(3-Cyanophenyl)pyrimidin-4-yl)-1,2,4-oxadiazol-3-yl)pyrrolidine-1-carbonitrile] |
| 1 to 10 | N#CN1CCCC1c1noc(-c2cccc(-c3ccccc3)n2)n1 (centres unmarked) [Example 142, 2-(5-(6-Phenylpyridin-2-yl)-1,2,4-oxadiazol-3-yl)pyrrolidine-1-carbonitrile] |
| 0.1 to 1 | N#Cc1cc(F)cc(-c2ccc3oc([C@@H]4CCCN4C#N)nc3c2)c1 [Example 138, (S)-2-(5-(3-Cyano-5-fluorophenyl)-benzo[d]oxazol-2-yl)pyrrolidine-1-carbonitrile] |
| 0.1 to 1 | N#CN1CCCC1c1noc(-c2ccnc(-c3cccc(OC(F)(F)F)c3)c2)n1 (centres unmarked) [Example 168, 2-(5-(2-(3-(Trifluoromethoxy)phenyl)-pyridin-4-yl)-1,2,4-oxadiazol-3-yl)pyrrolidine-1-carbonitrile] |
| 1 to 10 | Cc1noc(C)c1-c1ccn2c(C3CCN(C#N)C3)cnc2c1 (centres unmarked) [Example 125, 3-(7-(3,5-Dimethylisoxazol-4-yl)imidazo[1,2-a]pyridin-3-yl)pyrrolidine-1-carbonitrile] |
| 1 to 10 | N#CN1CCCC1c1noc(-c2ccnc(-c3ccc(OC(F)(F)F)cc3)c2)n1 (centres unmarked) [Example 169, 2-(5-(2-(4-(Trifluoromethoxy)phenyl)-pyridin-4-yl)-1,2,4-oxadiazol-3-yl)pyrrolidine-1-carbonitrile] |
| 0.1 to 1 | CCc1cccc(-c2ccc3nc([C@@H]4CCCN4C#N)oc3c2)c1 [Example 130, (S)-2-(6-(3-Ethylphenyl)benzo[d]oxazol-2-yl)pyrrolidine-1-carbonitrile] |
| 0.1 to 1 | N#Cc1cc(-c2ccnc(-c3nc([C@@H]4CCCN4C#N)no3)c2)ccn1 [Example 182, (S)-2′-(3-(1-Cyanopyrrolidin-2-yl)-1,2,4-oxadiazol-5-yl)-[4,4′-bipyridine]-2-carbonitrile] |
| < 0.1 | N#Cc1cc(-c2cc(-c3nc([C@@H]4CCCN4C#N)no3)ccn2)ccn1 [Example 181, (S)-4-(3-(1-Cyanopyrrolidin-2-yl)-1,2,4-oxadiazol-5-yl)-[2,4′-bipyridine]-2 carbonitrile] |
| 0.1 to 1 | COc1ccc(C#N)cc1-c1cccc(-c2nc(C3CCCN3C#N)no2)c1 (centres unmarked) [Example 146, 2-(5-(5′-Cyano-2′-methoxy-[1,1′-biphenyl]-3-yl)-1,2,4-oxadiazol-3-yl)pyrrolidine-1-carbonitrile] |
| 0.1 to 1 | Cc1ccc(-c2cccc(-c3nc(C4CCCN4C#N)no3)c2)cn1 (centres unmarked) [Example 154, 2-(5-(3-(6-Methylpyridin-3-yl)phenyl)-1,2,4-oxadiazol-3-yl)pyrrolidine-1-carbonitrile] |
| 0.1 to 1 | N#CN1CCC(c2[nH]nc(-c3cccc(N4CCCCC4)n3)c2F)C1 (centres unmarked) [Example 196, 3-(4-Fluoro-3-(6-(piperidin-1-yl)pyridin-2-yl)-1H-pyrazol-5-yl)pyrrolidine-1-carbonitrile] |
| 0.1 to 1 | N#CN1CCC[C@H]1c1nc2cc(-c3cccc([N+](=O)[O-])c3)ccc2o1 [Example 136, (S)-2-(5-(3-Nitrophenyl)benzo[d]oxazol-2-yl)pyrrolidine-1-carbonitrile] |
| < 0.1 | N#Cc1cc(-c2cccc(-c3nc([C@@H]4CCCN4C#N)no3)n2)ccn1 [Example 183, (S)-6-(3-(1-Cyanopyrrolidin-2-yl)-1,2,4-oxadiazol-5-yl)-[2,4′-bipyridine]-2 carbonitrile] |
| 1 to 10 | Cn1ncc2cc(-c3ccc4oc([C@@H]5CCCN5C#N)nc4c3)ccc21 [Example 135, (S)-2-(5-(1-Methyl-1H-indazol-5-yl)-benzo[d]oxazol-2-yl)pyrrolidine-1-carbonitrile] |

— US11352339B2 (MISSION THERAPEUTICS LIMITED, priority 2016, dated 2022)
